Experiment [1] deals with complex II. Briefly: Respiratory chain enzyme activity relative to citrate synthase, complex II. Format: cell-based, human. Conditions: TEX cells, 2.5 μM and 5 μM, 72 hours. On the procedure:
(§1) FIG. 4. Tigecycline decreases mitochondrial Cox-1 protein levels in TEX cells. (A) Cells from TEX, OCI-AML2 and two primary AML patients were treated with increasing concentrations (2.5 μM and 5 μM) of tigecycline for 36 and 48 hours of tigecycline. Total proteins were extracted and analyzed by western blotting for Cox-1, Cox-2, Cox-4, grp78, XIAP, actin and tubulin. (B) TEX and AML patient cells were treated with increasing concentrations (2.5 μM and 5 μM) of tigecycline. Cox-1, Cox-2, and Cox-4 mRNA expression relative 18S was determined by quantitative RT-PCR. Data is shown as mean±SD. (C) TEX cells were treated with increasing concentrations of tigecycline and chloramphenicol (CAP) for 72 hours. Complex I, II and IV enzyme activity relative to citrate synthase activity was determined as described in materials and methods. […] Mitochondrial membrane potential (ΔΨ) was determined by staining cells with JC-1 dye, and flow cytometry analysis (Red/Green ratio). Reactive oxygen species generation (ROS) was determined by staining with h2-DCFDA and Dihydroethidium (DHE).
The effect of tigecycline treatment on enzyme activity of the respiratory chain complexes relative to the mitochondrial non-respiratory chain enzyme citrate synthase was examined. TEX leukemia cells were treated with tigecycline for […] and then respiratory chain enzyme relative to citrate synthase activity was analyzed. […]

Experiment [2] concerns primary AML patient samples. In words: Methylcellulose colony formation assay, primary AML cells. Format: cell-based, human. To be noted: 5 μM, primary AML patient samples n=7, 7 days. On the procedure:
FIG. 2. Tigecycline induces cell death and inhibits clonogenic growth in primary AML cells preferential over normal hematopoietic cells. Mononuclear cells from peripheral blood of leukemia patients (blast count>80%) and normal G-CSF expanded donors was treated with increasing concentrations of tigecycline for 48 hours. Cell viability was measured by Annexin-PI flow cytometry staining. Cell viability is expressed as a mean percentage plus or minus SD (n=3) relative to DMSO-treated cells. Mononuclear cells from primary AML patient samples (A, B) and normal peripheral blood cells (C) were plated in methylcelluose with 5 μM of Tigecycline. (D) Colony forming units were counted at 7 days (AML) and 14 days (Normal) post plating. […]
To assess clonogenic growth, primary AML cells (1.0×10^5/mL) or granulocyte colony-stimulating factor (G-CSF) mobilized PBSCs (1.0×10^5/mL) were plated in duplicate with increasing concentrations of tigecycline in MethoCult GF H4434 medium (StemCell Technologies, Vancouver, BC) containing 1% methycellulose in IMDM, 30% FCS, 1% bovine serum albumin, 3 U/mL of recombinant human erythropoietin, 10^−4 M of 2-mercaptoethanol, 2 mM of L-glutamine, 50 ng/mL of recombinant human stem cell factor, 10 ng/mL of GM-CSF, and 10 ng/mL of rh IL-3). Seven days (AML samples) or 14 days (normal PBCS) after plating, the number of colonies was counted as previously described^31.

Experiment [3] relates to TEX cells and primary AML samples. In words: Mitochondrial membrane potential, JC-1, leukemia cells. To be noted: 5 μM, times preceding onset of cell death. Format: cell-based, human. On the procedure:
as §1, with “(C) TEX cells were treated with increasing concentrations of tigecycline and chloramphenicol (CAP) for 72 hours.” left out
To measure mitochondrial membrane potential, cells were treated with tigecycline similarly as described above and then washed twice with PBS and incubated with 5 μM of 5,5′,6,6′-tetrachloro-1,1′,3,3′-tetraethyl benzimidazolylcarbocyanine iodide (JC-1, Sigma-Aldrich) for 20 minutes at 37° C. Each sample was then washed twice with 1 mL PBS and resuspended in 500 μL PBS prior to being read on a BD FACSCalibur. […]

For experiment [4], the system named is XIAP, grp78. Briefly: Immunoblotting of cytosolic-ribosome translated proteins. Format: cell-based, human. Conditions: TEX, OCI-AML2, primary AML cells. The method, then: FIG. 4. […] (A) Cells from TEX, OCI-AML2 and two primary AML patients were treated with increasing concentrations (2.5 μM and 5 μM) of tigecycline for 36 and 48 hours of tigecycline. Total proteins were extracted and analyzed by western blotting for Cox-1, Cox-2, Cox-4, grp78, XIAP, actin and tubulin. (B) TEX and AML patient cells were treated with increasing concentrations (2.5 μM and 5 μM) of tigecycline. Cox-1, Cox-2, and Cox-4 mRNA expression relative 18S was determined by quantitative RT-PCR. Data is shown as mean±SD. (C) TEX cells were treated with increasing concentrations of tigecycline and chloramphenicol (CAP) for 72 hours. Complex I, II and IV enzyme activity relative to citrate synthase activity was determined as described in materials and methods. (D) Cells from TEX, primary AML patients, and normal donors were treated with increasing concentrations of tigecycline. Mitochondrial membrane potential (ΔΨ) was determined by staining cells with JC-1 dye, and flow cytometry analysis (Red/Green ratio). Reactive oxygen species generation (ROS) was determined by staining with h2-DCFDA and Dihydroethidium (DHE).
Total cell lysates were prepared from cells as described previously^32. […] Protein concentrations were measured by the DC Protein assay. […]

Experiment [5] relates to bacterial protein synthesis. To be noted: cited from earlier work.

`CN(C)c1cc(NC(=O)CNC(C)(C)C)c(O)c2c1C[C@H]1C[C@H]3[C@H](N(C)C)C(O)=C(C(N)=O)C(=O)[C@@]3(O)C(O)=C1C2=O` [tigecycline]: the “complex II activity relative to citrate synthase” value in experiment [1] is “less affected”. Besides, the “reduction of clonogenic growth” value in experiment [2] was determined as 93±4%. Further, the mitochondrial membrane potential entry in experiment [3] was “decreased”. In experiment [4], the “expression of XIAP or grp78” value is “did not alter”. Besides, the “inhibition of bacterial protein synthesis, fold greater than minocycline” value in experiment [5] (relative to minocycline) is recorded as 3 fold. In experiment [5] (relative to tetracycline), the “inhibition of bacterial protein synthesis, fold greater than tetracycline” value is recorded as 20 fold.

These data come from patent US20140221301A1, “COMBINATION TREATMENT FOR CANCER” (priority 2011, published 2014).
